Assay results published in US20040175368A1 (Wisconsin Alumni Research Foundation, priority 2001, published 2004).

Key:
[1] = system: murine CFU-GM cells; assay: Dye-sensitized photoinactivation of normal hematopoietic CFU-GM cells, in vitro clonal assay; type: cell-based; details: 1.0×10^−6 M dye, 12% FBS, light up to 90 min (FIG. 3 lower panel)
[2] = system: L1210 cells; assay: Uptake of dye by L1210 cells; type: cell-based, murine; details: for Dye Uptake by L1210 Cells: 1 hour at 37° C. in the dark, 12% FBS
Method: L1210 cells were suspended at a concentration of 1.0×10^6 cells/mL in HEPES-buffered (10 mM, pH 7.4) alpha-medium supplemented with FBS (12%), and the TAM^+dyes were added from 1.0×10^−4M stock solutions in 50% ethanol to final concentrations of […]. The cells were subsequently incubated in the dark for 1 hour at 37° C., pelleted, washed with dye-free medium, and extracted with ethanol (1 mL per […]). The dye content of each extract was determined spectrophotometrically using calibration curves assembled using suitable dilutions of authentic dye in ethanol extracts of cells that had been incubated in dye-free medium.

[3] = system: RBL cells; assay: Two-photon laser scanning microscopy of intracellular dye distribution; type: cell-based, rat; details: 0.2 μM dye; for intracellular distribution of dye fluorescence: 10 minutes incubation
Method: RBL cells were incubated in the dark at a concentration of 1.1×10^5 cells/mL for periods ranging from 1 minute to 1 hour with fresh growth media containing 0.2 μM CV^+or Ev^+and subsequently incubated for 30 minutes in the dark with fresh growth media containing 0.05 μM Rh123; After a final cycle of washing and incubation for 15 minutes in fresh growth media, the media were replaced by modified Tyrode's solution containing 5 mM glucose and bovine serum albumin, and the cells were subjected to two-photon imaging. The examination of TAM^+accumulation into mitochondria was carried out through the comparison of the spatial distribution of the fluorescence of these dyes in the cellular environment with that of Rh123 (a classical mitochondrial marker^1,3) and the endogenous NAD(P)H. Fluorescence distributions within living RBL cells were obtained with a laser scanning multiphoton microscope (Bio-Rad MP1024). […] Three external detectors located in the Fourier plane of the microscope and equipped with appropriate sets of longpass dichroic and bandpass filters (from Chroma) were used for the simultaneous detection of two-photon excited fluorescence of NAD(P)H (400-500 nm), Rh123 (520-550 nm), and CV^+or EV^+(600-660 nm). To obtain sufficient fluorescence from CV^+,EV^+, and cellular NAD(P)H autofluorescence (all inefficient fluorophores), average excitation powers of approximately 18 mW were required. […]
Two-photon laser scanning microscopy^22,28 was used to obtain information on intracellular distribution and mitochondrial accumulation of CV^+and EV^+in RBL cells. […] Simultaneous two-photon images of NAD(P)H, Rh123, and TAM^+fluorescence were obtained by exciting RBL cells at 750 nm with a Ti:Sapphire laser (75 fs, 80 MHz, 18 mW) as the excitation source. No morphologic alterations or induction of fluorescence attributed to cellular photodamage was observed during the brief imaging period (approximately 3 seconds), and the bleaching of the three fluorophores was also negligible during this period. […]

[4] = Photobleaching quantum efficiency of TAM+ dyes noncovalently bound to BSA (532-nm laser photolysis); type: physicochemical
Method: Spectrophotometric studies were performed with a Shimadzu UV-2101PC spectrophotometer. 1-Octanol/water partition coefficients^18 (P), were determined at 25° C. using equal volumes of water and 1-octanol. Typically, five distinct solutions of each dye in the concentration range between 1 μM and 10 μM were prepared in deionized water and subsequently equilibrated with 1-octanol. After the equilibrium was reached, the final dye concentrations in the aqueous and/or organic phases were determined by absorption spectroscopy. For the measurement of photobleaching quantum efficiencies, the samples were placed in standard 10-mm (optical path) quartz cells at a distance of approximately 10 cm from the light source and photolyzed using the 532-nm line of an Nd:YAG laser model 7010 from Continuum operating at a repetition rate of 10 Hz. The defocused laser beam (circular profile with a diameter of about 5 mm) was directed to the center of the quartz cell. The absolute photolysis energy (or the number of 532-nm photons per laser pulse) was kept constant over the course of any specific experiment. The temperature-controlled cell holder allowed continuous magnetic stirring of the samples during photolysis. The photobleaching quantum efficiencies were based on the photobleaching efficiency of a classical chemical actinometer, potassium ferrioxalate, ^19,20 and determined considering only the first 5 to 10% decrease in dye concentration. The photolysis energy was adjusted to appropriate levels with the use of a calibrated solid-state joulemeter model PM30VI from Molectron.
To explore how the photoreactivity of the TAM^+dyes in complex biologic environments correlates with the observed phototoxic effects toward tumor and normal cells, the photo-bleaching efficiency of TAM^+dyes noncovalently bound to a model biologic host (bovine serum albumin, BSA) was measured. For the case of CFU-GM cells, the efficacy of photoinduced cell destruction mediated by TAM^+dyes precisely paralleled the photochemical reactivity of these photosensitizers. Both, phototoxicity (FIG. 3, lower panel) and photoreactivity (Table 1) followed the decreasing order EV^+>VPBBO^+>CV^+>VBR^+.

For `CCN=C1C=CC(=C(c2ccc(N(CC)CC)cc2)c2ccc(N(CC)CC)cc2)c2ccccc21.Cl` [VPBBO^+, victoria pure blue BO], the “phototoxicity toward normal hematopoietic CFU-GM cells (in words)” value [1] was “considerably more efficient in inactivating normal hematopoietic cells”, the “phototoxicity toward normal hematopoietic CFU-GM cells (in words)” value ([1]; listed as VPBBO+) was “intermediate efficacy” and the Dye Uptake by L1210 Cells [2] was 1.16e+08 molecules/cell.
In the case of `CCN(CC)c1ccc(C(=C2C=CC(=[N+](CC)CC)C=C2)c2ccc(N(CC)CC)cc2)cc1` [EV^+, ethyl violet], the “intracellular distribution of dye fluorescence” value [3] was “also accumulates into cell mitochondria”, the “phototoxicity toward normal hematopoietic CFU-GM cells (in words)” value [1] was “phototoxic toward both cell lines” and the Dye Uptake by L1210 Cells [2] was 1.76e+08 molecules/cell.
With `CN(C)c1ccc(C(=C2C=CC(=[N+](C)C)C=C2)c2ccc(N(C)C)cc2)cc1` [CV^+, crystal violet] the “intracellular distribution of dye fluorescence” value [3] was “consistent with mitochondrial localization”, the “effect on mitochondria after prolonged incubation” value ([3]; 1 hour incubation, then 0.05 μM Rh123) was “mitochondrial inner membrane potential has been reduced” and the “phototoxicity toward normal hematopoietic CFU-GM cells (in words)” value [1] was “comparatively small toxic effects”. For the same molecule, the Dye Uptake by L1210 Cells [2] was 2.14e+08 molecules/cell, the “relative efficiency of uptake by L1210 cells (in words)” value ([2]; among the TAM+ dyes tested) was “most efficiently taken up by L1210 cells” and the “quantum efficiency of photobleaching, nitrogen-purged relative to air-equilibrated samples” value ([4]; BSA-bound) was “twofold higher”. For the same molecule, the “photobleaching efficiency of dimer relative to monomer” value ([4]; BSA-bound, air-equilibrated) was “eightfold higher”, the “photobleaching efficiency of BSA-bound dimer” value ([4]; air-equilibrated samples, dimer) was 1.1×10^−4 and the “photobleaching efficiency of BSA-bound monomer” value ([4]; air-equilibrated samples, monomer) was 1.3×10^−5.
In the case of `CCN=C1C=CC(=C(c2ccc(N(C)C)cc2)c2ccc(N(C)C)cc2)c2ccccc21.Cl` [VBR^+, victoria blue R], the “phototoxicity toward normal hematopoietic CFU-GM cells (in words)” value [1] was “lowest efficacy” and the Dye Uptake by L1210 Cells [2] was 8.8e+07 molecules/cell.
